The record followed here is ChEMBL document CHEMBL1149346, “Activity of nitrogen-containing and non-nitrogen-containing bisphosphonates on tumor cell lines” (J Med Chem, 2006).

What all share (type): functional, cell-based
One experiment deals with MCF7. Description: Antiproliferative activity against human MCF7 cell line by MTT assay. Background: Tetrazolium dyes change colour on reduction, which living cells bring about.
The test system of the next experiment is NCI-H460. The experiment in a line: Antiproliferative activity against human NCI-H460 cell line by MTT assay.
The subject of a further experiment is SF-268. Description: cells. Conditions: Homo sapiens.
The test system of the next experiment is 13762. Description: Antiproliferative activity against rat 13762 cell line.

Description for SF-268: Antiproliferative activity against human SF-268 cell line by MTT assay

Take `CN(C)c1cc[n+](CC(O)(P(=O)([O-])O)P(=O)(O)O)cc1` (stereo not given): the IC50 in the experiment with MCF7, with NCI-H460 and in the experiment with SF-268 was above 10000 µM each time.

Turning to `N#Cc1cccc(CC(P(=O)(O)O)P(=O)(O)O)c1`, the IC50 in the experiment on MCF7, in the experiment on NCI-H460 and in the experiment on SF-268 was above 1000 µM each time.

With `O=P([O-])(O)C(C[n+]1cccc(S(=O)(=O)N2CCCC2)c1)P(=O)(O)O` (stereo not given), the IC50 in the experiment with MCF7, in the experiment with NCI-H460 and in the experiment with SF-268 was above 10000 µM each time.

Consider `O=P([O-])(O)C(O)(C[n+]1ccc(-c2ccncc2)cc1)P(=O)(O)O` (stereo not given), for which the IC50 with MCF7, in the experiment with NCI-H460 and in the experiment with SF-268 was above 10000 µM each time.

For the molecule `O=P([O-])(O)C(C[n+]1ccc(-c2cccc(-c3ccccc3)c2)cc1)P(=O)(O)O` (stereo not given), the IC50 in the experiment with MCF7, with NCI-H460 and in the experiment with SF-268 was above 10000 µM throughout.

On to `O=P([O-])(O)C(C[n+]1ccc2ccccc2c1)P(=O)(O)O` (stereo not given), for which the IC50 in the experiment on MCF7, with NCI-H460 and in the experiment with SF-268 was above 10000 µM each time.

With `O=P([O-])(O)C(C[n+]1ccc(C(F)(F)F)cc1)P(=O)(O)O` (stereo not given), the IC50 with MCF7, in the experiment with NCI-H460 and in the experiment on SF-268 was above 10000 µM throughout.

For the molecule `O=P([O-])(O)C(C[n+]1ccc(-c2ccc(-c3ccccc3)cc2)cc1)P(=O)(O)O` (stereo not given), the IC50 in the experiment with MCF7, in the experiment on NCI-H460 and with SF-268 was above 10000 µM throughout.

In the case of `NCCC(O)(P(=O)(O)O)P(=O)(O)O` [PAMIDRONIC ACID], the IC50 – broadly, the concentration at which inhibition is half-maximal – with MCF7 was 141 µM; in the experiment with 13762, 33.6 µM; in the experiment on NCI-H460, 71.8 µM; in the experiment on SF-268 it was 408 µM.

For the molecule `O=P(O)(O)C(O)(Cc1cccnc1)P(=O)(O)O` [RISEDRONIC ACID], the IC50 with MCF7 was 35.7 µM; in the experiment with 13762, above 40 µM; in the experiment on NCI-H460, 43.7 µM; in the experiment with SF-268 it was 23.3 µM.

For the molecule `O=P(O)(O)C(O)(Cn1ccnc1)P(=O)(O)O` [ZOLEDRONIC ACID], the IC50 in the experiment with MCF7 was 27.7 µM; in the experiment with NCI-H460, 11.7 µM; in the experiment with SF-268, 14.3 µM.
